Experimental findings from US20160280789A1, “METHODS FOR TREATING HEMATOLOGICAL MALIGNANCIES” (CHILDREN'S HOSPITAL LOS ANGELES, priority 2013, published 2016) are described below.

Assay [1] has as its system ITGA6fl/fl BCR/ABL1+ pre-B ALL cells. In words: In vivo model of BCR-ABL1-transformed ITGA6fl/fl ALL in NOD/SCID mice, survival with Nilotinib. Also noted: species or system mouse.
Procedure: A, Bioluminescence imaging was performed at indicated days post-ALL cells injection. […] C, D ITGA6 deletion was confirmed by FACS in BM cells of mice sacrificed at time of death of leukemia. E, Residual leukemia cells were determined in spleen and bone marrow by RT-PCR and F, PCR in the groups EmptyER^T2+Nilotinib and CreER^T2+Nilotinib.
Bone marrow cells from ITGA6fl/fl mice (Georges-Labouesse et al.) mice were harvested and retrovirally transformed by BCR-ABL1 (Pear et al.) in the presence of 10 ng IL7 (Peprotech) in Retronectin-(Takara) coated plates. All BCR-ABL1-transformed ALL cells derived from bone marrow of mice were maintained in Iscove's modified Dulbecco's medium (IMDM) with GlutaMAX containing 20% fetal bovine serum (Atlanta Biologica), 100 IU/ml penicillin, 100 μg/ml streptomycin (Invitrogen), and 50 μM 2-mercaptoethanol (Sigma-Aldrich) at 37° C. in a humidified incubator with 5% CO2. After cytokine-independent proliferation, BCR-ABL1 transformed ITGA6fl/fl cells were transduced retrovirally with EmptyERT2 or CreERT2. […] D-Luciferin (Promega) dissolved in PBS was injected intraperitoneally at a dose of 2.5 mg per mouse 15 minutes before measuring the luminescence signal. […] Mice were monitored for weight loss and other leukemia symptoms. Moribund mice were sacrificed and tissues were analyzed for leukemia cell infiltration to confirm leukemia as the cause of death.
To determine the effect of VLA6 deletion on leukemia progression in vivo, ITGA6 competent ITGA6fl/fl BCR/ABL1+ pre-B (B220+CD19+) CreERT2+ or control transduced ALL cells were lentivirally luciferase labeled and transferred into NOD/SCID mice (FIG. 6A). […] For this purpose, splenic cells and bone marrow cells of leukemia recipient animals were isolated and analyzed for BCR-ABL1 mRNA expression by RT-PCR (FIG. 6E) and BCR-ABL1 expression in genomic DNA by PCR (FIG. 6F).
Assay [2] has as its system BCR-ABL-1+ ITGA6fl/fl cells. Briefly: cells. Particulars: Mus musculus, 72 h.
Procedure: Viability of CreER^T2 and EmptyER^T2 ITGA6^f/f BCR-ABL1^+ CreER^T2 and EmptyER^T2 cells were plated onto tissue culture plates (no further ligand coated) and treated with Tamoxifen (1.5 μM) and Nilotinib (0.02 μM or 0.2 μM) for 1 to 3 days. Cell viability was determined by trypan blue exclusion. Y axis indicates cell viability relative to initial.
Bone marrow cells from ITGA6fl/fl mice (Georges-Labouesse et al.) mice were harvested and retrovirally transformed by BCR-ABL1 (Pear et al.) in the presence of 10 ng IL7 (Peprotech) in Retronectin-(Takara) coated plates. All BCR-ABL1-transformed ALL cells derived from bone marrow of mice were maintained in Iscove's modified Dulbecco's medium (IMDM) with GlutaMAX containing 20% fetal bovine serum (Atlanta Biologica), 100 IU/ml penicillin, 100 μg/ml streptomycin (Invitrogen), and 50 μM 2-mercaptoethanol (Sigma-Aldrich) at 37° C. in a humidified incubator with 5% CO2. After cytokine-independent proliferation, BCR-ABL1 transformed ITGA6fl/fl cells were transduced retrovirally with EmptyERT2 or CreERT2. […] After 1 μg/ml puromycin selection, VLA6 deletion was induced in vitro by addition of 1.0 μM tamoxifen (Sigma-Aldrich). […]

“Also recorded” adds a separate entry of the source. Where two headings read alike, the source gives them in different places.

Consider `Cc1cn(-c2cc(NC(=O)c3ccc(C)c(Nc4nccc(-c5cccnc5)n4)c3)cc(C(F)(F)F)c2)cn1` [Nilotinib], for which the “Median survival time (MST), CreERT2 (ITGA6 deleted) leukemia” value in assay [1] (n=5, Tamoxifen-induced in vivo deletion) was “survived; also recorded: undefined”. Moreover, in assay [1] (n=6, days post-leukemia injection), the “Median survival time (MST), EmptyERT2 (ITGA6 competent) leukemia” value was 39.5 days. Besides, the viability – broadly, a per cent measure of how many cells are alive, often set against a control – at 0.02 µM is 10.2% in assay [2] (read-out: Viability of leukemia cells, CreERT2 (ITGA6 deleted)) and 83.7% in assay [2] (read-out: Viability of leukemia cells, EmptyERT2 (ITGA6 competent)).
